This is an account of results in patent US6019959A, “Oligomeric compounds that contain perfluoroalkyl, process for their production, and their use in NMR diagnosis” (Schering Aktiengesellschaft, priority 1998, dated 2000).

Data set [1] can be described thus: T1-relaxivity of commercially available 1H-NMR contrast media. It counts as physicochemical. The settings on record: 39° C., 0.47 T.
The nature of data set [2]: Determination of the T1-relaxivity with a Minispec pc 20 in human plasma. It counts as physicochemical. The settings on record: 0.47 T (20 MHz), 37° C., human plasma, normalized to one metal atom. As for the experimental part:
Determination of the T^1 -Relaxivity of Selected Compounds
The relaxivity of the following compounds was determined
with a Minispec pc 20 (20 MHz, 0.47 T) at 37° C. in human plasma
and compared to that of Gd-DTPA-polylysine and Magnevist^(R) as
comparison substances. Since the substances according to the
invention contain more than one metal atom, the relaxivity was
normalized to one metal atom for purposes of comparison.

Data set [3] in a line: In-vivo comparison with an intravascular and an extracellular contrast medium in blocked kidneys (diffusibility). Set-up: species or system rats. The settings on record: i.v., blocked renal vessels, compound 2 set at 100%. As for the experimental part:
As test animals, three 250 g male (Schering-SPF) rats were used. The renal vessels in the animals were blocked to prevent renal elimination and, assuming that fecal elimination is negligible, to obtain a measure of the diffusibility of the formulation according to the invention from the blood into the surrounding tissue. 0.5 ml (in each case 10 mmol/l) of the following contrast medium solution was intravenously administered per animal: a mixture consisting of 1 part each of the compound of Example 1g, named compound 1 below, of intravascular contrast medium Eu-DTPA-albumin, named compound 2 below and of extracellular contrast medium Dy-DTPA, named compound 3 below. Via a catheter in the common carotid artery, blood samples were taken at the following times: 15, 30, 45, 60, 90 seconds; 3, 5, 10, 15 minutes p.i. In the blood samples that were obtained, in each case the concentrations of gadolinium (Gd), europium (Eu) and dysprosium (Dy) were measured in parallel using atom emission spectrometry (ICP-AES). The proportion of the intravascular contrast medium compound 2 (Eu) that remains in the blood space was set at 100%. It was possible to compare the proportion of the formulation according to the invention of compound 1 (Gd) and compound 3 (Dy, extracellular comparison substance) that remained in the blood space by the different labeling in the same animal, and the proportion was set as a percentage of the concentration of compound 2.

Data set [4] is described as follows: Blood elimination kinetics after one-time intravenous administration. It counts as in vivo, rats. The settings on record: two-compartment model, n=3. As for the experimental part: For this purpose, after one-time intravenous administration (via a caudal vein) of the substances (dose: ≈100 μmol of metal per kg of body weight), the substance concentration in the blood (based on the Gd or Dy content) was determined over a period of up to 120 minutes p.i. using ICP-AES. The pharmacokinetic parameters: distribution volume (Vss), total clearance (CLtot) and elimination half-life (tb) were calculated with a special computer program (TOPFIT 2.0; Thomae, Schering, Godecke), whereby a two-compartment distribution model was used as a basis.
The Gd and Dy contents in the blood were determined using ICP-AES.
For this purpose, after one-time intravenous administration (via a caudal vein) of the substances (dose: ≈100 μmol of metal per kg of body weight), the substance concentration in the blood (based on the metal content) was determined over a period of up to 120 minutes p.i. using ICP-AES. The pharmacokinetic parameters: distribution volume (Vss), total clearance (CLtot) and elimination half-life (tb) were calculated with a special computer program (TOPFIT 2.0; Thomae, Schering, Godecke), whereby a two-compartment distribution model was used as a basis.

Where [5] appears, read: Table 3, i.v. ≈100 μmol metal/kg.
Where [6] appears, read: Table 4, i.v. ≈100 μmol metal/kg.

As to `CNC(=O)CN(CCN(CCN(CC(=O)[O-])CC(=O)NC)CC(=O)[O-])CC(=O)[O-].[Gd+3]` [Omniscan], in data set [1], the “T^1-relaxivity” value was 3.5 to 4.9 mM⁻¹ s⁻¹.
In the case of “1,4,7-Tris{N-[3,9-bis(N-carboxylatomethyl)]-6-[N-(3-aza-2,5-dioxo-pentane)-1,5-diyl]-3,6,9-triazaundecane-1-carboxylato-11-acid, Gd complex, monosodium salt}-10-N-{undecanoyl-<11-amino-N-[acetyl-(2-amino-N-ethyl-N-perfluorooctyl-sulfonyl)]>}-1,4,7,10-tetraazacyclododecane [25f)]”, in data set [2], the “R^1 (T^1-relaxivity)” value was 15.1 L/mmol/s.
Take Dy-DTPA [reference compound]: the “Percentage of the dose that remains in the blood space” value (“Percentage of the dose that remains” below) in data set [3] (30 seconds p.i.) is recorded as 48%. For the same molecule, in data set [3] (3 minutes p.i.), the “Percentage of the dose that remains” value amounted to 25%. Further, in data set [3] (10 minutes p.i.), the “Percentage of the dose that remains” value came to 21%. In addition, in data set [4] (setting [5]), the “Distribution volume Vss (MEAN)” value is 0.17 Ukg, the “Elimination half-life tβ (MEAN)” value is recorded as 20.7 min, the “Total clearance CLtot (MEAN)” value is on record as 6.75 mU (min*kg) and the “tα (MEAN)” value stood at 2.07 min. In data set [4] (setting [6]), the “Distribution volume Vss (MEAN)” value is 0.17 Ukg, the “Elimination half-life tβ (MEAN)” value was 18.5 min, the “Total clearance CLtot (MEAN)” value was 6.90 mL·kg·min and the “tα (MEAN)” value was found to be 1.48 min.
For “1,4,7-Tris{N-3,3,6-tris(carboxylatomethyl)-6-[N-3-aza-2,5-dioxo-pentane-1,5-diyl]-3,6,9-triazaundecane-1,11-dioic acid, Gd complex, monosodium salt}-10-2H,2H,4H,4H,5H,5H-3-oxa-perfluoro-tridecanoyl)-1,4,7,10-tetraazacyclododecane [8b)]”, in data set [2], the “R^1 (T^1-relaxivity)” value is 20.6 L/mmol/s.
In the case of “1,4,7-Tris{N-hexanoyl-2,6-bis<amino-N-acetyl-2-[aminopropanoyl-(2-yl)]-[1,4,7-tris(N-carboxylatomethyl)-1,4,7,10-tetraazacyclododecan-10-yl, Gd complex]>}-10-[N-acetyl-(2-amino-N-ethyl-N-perfluorooctylsulfonyl)]-1,4,7,10-tetraazacyclododecane [Example 27]”, the “R^1 (T^1-relaxivity)” value in data set [2] worked out at 16.1 L/mmol/s.
Take Eu-DTPA-albumin [compound 2]: the “Percentage of the dose that remains” value in data set [3] (30 seconds p.i.), in data set [3] (3 minutes p.i.) and in data set [3] (10 minutes p.i.) was 100% each time.
As for “1,4,7-Tris{N-hexanoyl-2,6-bis<amino-N-acetyl-2-[3,9-bis(N-carboxylato-methyl)-6-yl-3,6,9-triazaundecane-1-carboxylato-11-acid, Gd complex, monosodium salt]>}-10-[N-acetyl-(2-amino-N-ethyl-N-perfluorooctylsulfonyl)]-1,4,7,10- tetraazacyclododecane [26d)]”, in data set [2], the “R^1 (T^1-relaxivity)” value is 13.0 L/mmol/s.
Turning to “1,4,7-Tris{1,4,7-tris-(N-carboxylatomethyl)-10-[N-(4,7-diaza-3,6,9-trioxo)-nonane-2,9-diyl]-1,4,7,10-tetraazacyclododecane, Gd complex-10-(N-22F,22F,22F,21F,21F,20F,20F,19F,19F,18F,18F,17F,17F,16F,16F,15F,15F-heptadecafluoro-12-oxa-docosanoyl)-1,4,7,10-tetraazacyclododecane [14e)]”, in data set [2], the “R^1 (T^1-relaxivity)” value worked out at 19.3 L/mmol/s.
Turning to `C[NH2+]C[C@H](O)[C@@H](O)[C@H](O)[C@H](O)CO.C[NH2+]C[C@H](O)[C@@H](O)[C@H](O)[C@H](O)CO.O=C([O-])CN(CCN(CC(=O)[O-])CC(=O)[O-])CCN(CC(=O)[O-])CC(=O)[O-].[Gd+3]` [Magnevist, di--N-methylglucamine salt of the Gd-DTPA complex, reference compound], in data set [2], the “R^1 (T^1-relaxivity)” value amounted to 4.8 L/mmol/s. For the same molecule, in data set [1], the “T^1-relaxivity” value fell in the range of 3.5 to 4.9 mM⁻¹ s⁻¹.
For the molecule `C[NH2+]C[C@H](O)[C@@H](O)[C@H](O)[C@H](O)CO.O=C([O-])CN1CCN(CC(=O)[O-])CCN(CC(=O)[O-])CCN(CC(=O)[O-])CC1.[Gd+3]` [Dotarem, meglumine salt of Gd-DOTA (Gadolinium(III)complex of 1,4,7,10-tetracarboxymethyl-1,4,7,10-tetraazacyclododecane)], the “T^1-relaxivity” value in data set [1] lay within 3.5 to 4.9 mM⁻¹ s⁻¹.
For “1,4,7-Tris{N-3,9-bis(carboxylatomethyl)-6-[N-3-aza-2,5-dioxo-pentane-1,5-diyl]-3,6,9-triazaundecane-1-carboxylato-11-acid, Gd complex, sodium salt}-10-[N-acetyl-(2-amino-N-ethyl-N-perfluorooctylsulfonyl)]-1,4,7,10-tetraazacyclododecane [18d)]”, the “R^1 (T^1-relaxivity)” value in data set [2] was determined as 23.0 L/mmol/s.
For the molecule `CC(O)CN1CCN(CC(=O)[O-])CCN(CC(=O)[O-])CCN(CC(=O)[O-])CC1.[Gd+3]` (stereo not shown) [Pro Hance], the “T^1-relaxivity” value in data set [1] was 3.5 to 4.9 mM⁻¹ s⁻¹.
